According to patent publication US10723701B2, “Quinolyl-substituted carboxylic acid compound or pharmaceutically acceptable salt thereof, pharmaceutical composition of the same, and use of the same” (BEIJING KONRUNS PHARMACEUTICAL CO., LTD., priority 2016, dated 2020):

Key:
[1] = target: T1, VEGFR2 (Homo sapiens, UniProt P35968); assay: Radioactive protein kinase assay (33PanQinase Activity Assay), VEGFR2; conditions: ATP 1.0 μM (Km), substrate Poly(Glu, Tyr) 4:1, 30° C., 60 minutes; read-out: Biochemical IC50 (nM) VEGFR2
T1 construct: purchased ProQinase GmbH
T1 sequence (P35968 20-1356): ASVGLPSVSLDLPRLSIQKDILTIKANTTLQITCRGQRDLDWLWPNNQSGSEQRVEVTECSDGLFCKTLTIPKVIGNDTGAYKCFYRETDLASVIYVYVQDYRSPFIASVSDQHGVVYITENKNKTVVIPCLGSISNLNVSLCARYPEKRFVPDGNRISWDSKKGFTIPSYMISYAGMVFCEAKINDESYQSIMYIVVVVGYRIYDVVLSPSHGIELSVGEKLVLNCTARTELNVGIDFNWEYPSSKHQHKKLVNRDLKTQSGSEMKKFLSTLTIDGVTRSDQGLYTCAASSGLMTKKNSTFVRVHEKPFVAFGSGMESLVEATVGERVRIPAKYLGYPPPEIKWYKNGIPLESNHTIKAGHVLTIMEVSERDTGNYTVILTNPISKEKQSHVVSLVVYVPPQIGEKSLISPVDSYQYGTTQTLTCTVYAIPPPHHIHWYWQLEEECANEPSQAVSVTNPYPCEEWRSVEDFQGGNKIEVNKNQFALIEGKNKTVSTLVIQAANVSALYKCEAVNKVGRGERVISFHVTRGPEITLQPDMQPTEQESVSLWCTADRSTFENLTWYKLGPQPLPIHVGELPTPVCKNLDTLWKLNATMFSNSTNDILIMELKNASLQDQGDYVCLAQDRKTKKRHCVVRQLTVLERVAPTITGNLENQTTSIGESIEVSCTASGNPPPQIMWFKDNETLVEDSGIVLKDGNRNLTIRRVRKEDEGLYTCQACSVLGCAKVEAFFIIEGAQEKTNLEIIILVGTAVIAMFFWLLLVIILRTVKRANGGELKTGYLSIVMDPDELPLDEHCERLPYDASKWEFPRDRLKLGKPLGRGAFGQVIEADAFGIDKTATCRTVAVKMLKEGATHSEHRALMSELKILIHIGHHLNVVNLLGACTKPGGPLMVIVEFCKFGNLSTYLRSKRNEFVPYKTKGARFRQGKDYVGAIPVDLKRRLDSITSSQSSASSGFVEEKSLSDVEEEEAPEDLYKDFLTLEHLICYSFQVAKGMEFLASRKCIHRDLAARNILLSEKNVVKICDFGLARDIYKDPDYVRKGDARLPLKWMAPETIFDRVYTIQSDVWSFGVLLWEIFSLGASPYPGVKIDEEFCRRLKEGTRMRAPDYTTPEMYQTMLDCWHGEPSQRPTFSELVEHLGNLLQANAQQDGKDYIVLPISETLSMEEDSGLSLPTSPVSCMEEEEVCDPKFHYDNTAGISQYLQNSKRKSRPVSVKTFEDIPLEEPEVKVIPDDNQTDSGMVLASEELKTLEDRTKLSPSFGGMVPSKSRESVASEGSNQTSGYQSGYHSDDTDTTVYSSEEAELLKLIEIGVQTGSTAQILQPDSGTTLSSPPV
Method: (§1) Biochemical inhibitory activity against AXL and VEGFR2 kinases: the biochemical IC50 values of the compound according to the present application for inhibiting AXL and VEGFR2 kinases were measured by ProQinase GmbH Company (Breisacher Str. 117, D-79106 Freiburg, Germany, www.proqinase.com). The specific steps are described as follows:
(§2) Firstly, the compound according to the present application was dissolved in dimethyl sulfoxide (DMSO) to prepare a stock solution of 1×10^−3 M. 10 different concentrations (from […] to 3×10^−10 M) were prepared by the serial semi-logarithmic dilution.
(§3) The biochemical activities of AXL and VEGFR2 were determined by the radioactive protein kinase assay (33PanQinase® Activity Assay). The assay was performed using a FlashPlates™ 96-well plate manufactured by Perkin Elmer (Boston, Mass., USA) with a reaction volume of 50 μL. The reaction mixture was added by a dropper in the following four steps:
(§4) (1) 20 μL of buffer solution (standard buffer);
(§5) (2) 5 μL of an aqueous solution of ATP;
(§6) (3) 5 μL of the compound (10% DMSO solution);
(§7) (4) 10 μL of a substrate/10 μL of a solution of the kinase.
(§8) The solution to be measured contains HEPES-NaOH (70 mM, pH=7.5), MgCl2 (3 mM), MnCl2 (3 mM), Na-orthovanadate (3 μM), DTT (1.2 mM), PEG20000 (50 μg/mL), ATP (in a concentration that is same as Km of the kinase and varies depending on different kinases), [γ-^33P]-ATP (about 4×10^5 cpm/well), kinase and substrate.
(§9) The reaction was carried out at 30° C. for 60 minutes, and 50 μL of 2% (v/v) phosphoric acid was added to terminate the reaction. The reaction mixture in each well was aspirated and washed twice with 200 μL of 0.9% (w/v) NaCl solution. The amount of the incorporation of ^33P was determined by using a microplate scintillation counter.

[2] = target: T2, AXL (Homo sapiens, UniProt P30530); assay: Radioactive protein kinase assay (33PanQinase Activity Assay), AXL; conditions: ATP 0.3 μM (Km), substrate Poly(Glu, Tyr) 4:1, 30° C., 60 minutes; read-out: Biochemical IC50 (nM) AXL
T2 construct: purchased ProQinase GmbH
T2 sequence (P30530 26-894): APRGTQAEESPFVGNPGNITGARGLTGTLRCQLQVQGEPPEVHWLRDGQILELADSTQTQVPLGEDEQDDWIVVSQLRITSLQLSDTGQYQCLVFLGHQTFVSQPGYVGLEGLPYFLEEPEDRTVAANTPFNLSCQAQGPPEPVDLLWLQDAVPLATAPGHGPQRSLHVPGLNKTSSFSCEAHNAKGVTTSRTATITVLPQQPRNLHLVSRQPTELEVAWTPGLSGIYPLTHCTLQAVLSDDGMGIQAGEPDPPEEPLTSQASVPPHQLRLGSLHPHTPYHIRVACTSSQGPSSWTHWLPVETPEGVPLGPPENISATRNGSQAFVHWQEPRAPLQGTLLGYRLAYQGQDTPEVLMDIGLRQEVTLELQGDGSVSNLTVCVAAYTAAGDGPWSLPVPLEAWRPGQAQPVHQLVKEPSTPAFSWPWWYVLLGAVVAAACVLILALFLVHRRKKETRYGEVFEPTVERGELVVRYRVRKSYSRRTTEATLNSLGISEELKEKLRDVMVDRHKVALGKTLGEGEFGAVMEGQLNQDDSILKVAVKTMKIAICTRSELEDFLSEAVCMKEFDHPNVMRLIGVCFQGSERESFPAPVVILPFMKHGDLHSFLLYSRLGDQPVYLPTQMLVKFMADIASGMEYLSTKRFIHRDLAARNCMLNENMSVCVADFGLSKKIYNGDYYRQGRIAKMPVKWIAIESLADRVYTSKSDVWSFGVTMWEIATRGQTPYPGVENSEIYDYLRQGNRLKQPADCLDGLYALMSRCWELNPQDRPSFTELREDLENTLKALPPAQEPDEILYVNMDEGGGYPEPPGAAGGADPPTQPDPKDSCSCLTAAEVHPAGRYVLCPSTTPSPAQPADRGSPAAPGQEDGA
Method: as §1, §2, §3, §4, §5, §6, §7, §8, §9

SMILES	IC50 [1] [nM]	IC50 [2] [nM]
COc1cc2c(Oc3ccc(NC(=O)C4(C(=O)Nc5ccc(F)cc5)CC4)cc3F)ccnc2cc1OCC(=O)O [Example 1, 2-[[4-[2-fluoro-4-[[1-[(4-fluorophenyl)carbamoyl]cyclopropanecarbonyl]amino]phenoxy]-6-methoxy-7-quinolyl]oxy]acetic acid]	24.5	55.3
COc1cc2c(Oc3ccc(NC(=O)C4(C(=O)Nc5ccc(F)cc5)CC4)cc3F)ccnc2cc1OCCCC(=O)O [Example 3, 4-[[4-[2-fluoro-4-[[1-[(4-fluorophenyl)carbamoyl]cyclopropanecarbonyl]amino]phenoxy]-6-methoxy-7-quinolyl]oxy]butyric acid]	6.56	9.86
COc1cc2c(Oc3ccc(NC(=O)C4(C(=O)Nc5ccc(F)cc5)CC4)cc3F)ccnc2cc1OCCCC(=O)O [Example 4, Sodium 4-[[4-[2-fluoro-4-[[1-[(4-fluorophenyl)carbamoyl]cyclopropanecarbonyl]amino]phenoxy]-6-methoxy-7-quinolyl]oxy]butyrate]	8.03	9.05
COc1cc2c(Oc3ccc(NC(=O)C4(C(=O)Nc5ccc(F)cc5)CC4)cc3F)ccnc2cc1OCCCCC(=O)O [Example 6, 5-[[4-[2-fluoro-4-[[1-[(4-fluorophenyl)carbamoyl]cyclopropanecarbonyl]amino]phenoxy]-6-methoxy-7-quinolyl]oxy]valeric acid]	6.6	7.49
COc1cc2c(Oc3ccc(NC(=O)C4(C(=O)Nc5ccc(F)cc5)CC4)cc3F)ccnc2cc1OCCCCC(=O)O [Example 8, Triethylammonium 5-[[4-[2-fluoro-4-[[1-[(4-fluorophenyl)carbamoyl]cyclopropanecarbonyl]amino]phenoxy]-6-methoxy-7-quinolyl]oxy]valerate]	8.66	6.08
COc1cc2c(Oc3ccc(NC(=O)C4(C(=O)Nc5ccc(F)cc5)CC4)cc3F)ccnc2cc1OCCCCCC(=O)O [Example 9, 6-[[4-[2-fluoro-4-[[1-[(4-fluorophenyl)carbamoyl]cyclopropanecarbonyl]amino]phenoxy]-6-methoxy-7-quinolyl]oxy]caproic acid]	16	10.2
COc1cc2c(Oc3ccc(NC(=O)C4(C(=O)Nc5ccc(F)cc5)CC4)cc3F)ccnc2cc1OCCCCCC(=O)O [Example 10, Sodium 6-[[4-[2-fluoro-4-[[1-[(4-fluorophenyl)carbamoyl]cyclopropanecarbonyl]amino]phenoxy]-6-methoxy-7-quinolyl]oxy]caproate]	13.9	11.9
COc1cc2c(Oc3ccc(NC(=O)C4(C(=O)Nc5ccc(F)cc5)CC4)cc3F)ccnc2cc1OCCCCCC(=O)O [Example 11, Potassium 6-[[4-[2-fluoro-4-[[1-[(4-fluorophenyl)carbamoyl]cyclopropanecarbonyl]amino]phenoxy]-6-methoxy-7-quinolyl]oxy]caproate]	13.6	14.9
COc1cc2c(Oc3ccc(NC(=O)C4(C(=O)Nc5ccc(F)cc5)CC4)cc3F)ccnc2cc1OCCCCCC(=O)O [Example 12, Calcium 6-[[4-[2-fluoro-4-[[1-[(4-fluorophenyl)carbamoyl]cyclopropanecarbonyl]amino]phenoxy]-6-methoxy-7-quinolyl]oxy]caproate (1:1)]	10.4	10.7
COc1cc2c(Oc3ccc(NC(=O)C4(C(=O)Nc5ccc(F)cc5)CC4)cc3F)ccnc2cc1OCCCCCC(=O)O [Example 13, 1,3-dihydroxy-2-(hydroxymethyl)propan-2-ammonium 6-[[4-[2-fluoro-4-[[1-[(4-fluorophenyl)carbamoyl]cyclopropanecarbonyl]amino]phenoxy]-6-methoxy-7-quinolyl]oxy]caproate]	12.6	8.63
COc1cc2c(Oc3ccc(NC(=O)C4(C(=O)Nc5ccc(F)cc5)CC4)cc3F)ccnc2cc1OCCCCCCC(=O)O [Example 14, 7-[[4-[2-fluoro-4-[[1-[(4-fluorophenyl)carbamoyl]cyclopropanecarbonyl]amino]phenoxy]-6-methoxy-7-quinolyl]oxy]heptanoic acid]	13.6	13.7
COc1cc2c(Oc3ccc(NC(=O)C4(C(=O)Nc5cccc(Cl)c5)CC4)cc3F)ccnc2cc1OCCCCCCC(=O)O [Example 16, Calcium 7-[[4-[2-fluoro-4-[[1-[(3-chlorophenyl)carbamoyl]cyclopropanecarbonyl]amino]phenoxy]-6-methoxy-7-quinolyl]oxy]heptanoate]	18.9	19.8
CCOc1cc2c(Oc3ccc(NC(=O)C4(C(=O)Nc5ccc(F)cc5)CC4)cc3F)ccnc2cc1OCC(=O)O [Example 18, Potassium 2-[[4-[2-fluoro-4-[[1-[(4-fluorophenyl)carbamoyl]cyclopropanecarbonyl]amino]phenoxy]-6-ethoxy-7-quinolyl]oxy]acetate]	9.86	10.7
